Results published in ChEMBL document CHEMBL2417531, “The discovery of inhibitors of Fas-mediated cell death pathway using the combined computational method” (Bioorg Med Chem Lett, 2013).

Biological target: T1, Tumor necrosis factor receptor superfamily member 6 (Rattus norvegicus) (UniProt Q63199)
T1 sequence (whole entry): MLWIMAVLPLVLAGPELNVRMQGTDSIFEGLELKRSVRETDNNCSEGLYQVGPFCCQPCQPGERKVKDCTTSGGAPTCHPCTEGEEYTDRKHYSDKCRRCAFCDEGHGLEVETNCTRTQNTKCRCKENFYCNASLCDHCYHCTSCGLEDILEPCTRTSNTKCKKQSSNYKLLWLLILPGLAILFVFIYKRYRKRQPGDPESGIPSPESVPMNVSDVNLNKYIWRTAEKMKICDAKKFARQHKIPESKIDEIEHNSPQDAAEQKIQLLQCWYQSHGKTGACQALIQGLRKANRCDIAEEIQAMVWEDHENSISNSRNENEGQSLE
Test: Inhibition of Fas-mediated cell death in oxygen and glucose deprived rat H9c2 cells at 10 uM treated 30 mins before oxygen and glucose deprivation measured after 6 hrs by DAPI staining
Format: cell-based

Row | SMILES | inhibition
1 | COC(=O)c1sccc1NC(=O)CSc1cccc(OC)c1 | 6.18%
2 | COC(=O)c1c(NC(=O)CSc2ccc(Br)cc2)cnn1CCc1ccccc1 | 5.41%
3 | O=C(CCSc1ccccn1)Nc1cc(Cl)ccc1C1=NCCO1 | 23.2%
4 | Cc1csc(C(=O)O)c1NC(=O)CSc1ccc(Br)cc1 | 14.3%
5 | COC(=O)c1oc2ccccc2c1NC(=O)CSc1ccc(Br)cc1 | 7.57%
6 | O=C(O)c1cc(Cl)ccc1NC(=O)C(Sc1ccc(Br)cc1)c1ccccc1 (stereo not given) | 27.4%
7 | O=C(CSc1ccc(Br)cc1)Nc1c(Br)cc(Br)cc1C(=O)O | 16.1%
8 | COC(=O)c1sc2ccccc2c1NC(=O)CSc1ccccc1 | 7.94%
9 | COC(=O)c1sc2ccccc2c1NC(=O)CCSc1ccc(Br)cc1 | 8.57%
10 | COC(=O)c1sccc1NC(=O)CCSc1ccc(Br)cc1 | 16.9%
11 | COC(=O)c1ccc(Cl)cc1NC(=O)CSc1ccc(Br)cc1 | 12%
12 | COC(=O)c1sccc1NC(=O)CSc1ccccc1 | 9.48%
13 | CN(C)C(=O)c1sccc1NC(=O)CSc1ccc(Br)cc1 | 10.4%
14 | COC(=O)c1ccc(Cl)cc1NC(=O)CCSc1ccccn1 | 12.8%
15 | COC(=O)c1oc2cccc(Cl)c2c1NC(=O)CSc1ccc(Br)cc1 | 14.7%
16 | COC(=O)c1sccc1NC(=O)CSc1ccc(OC)cc1 | 10.8%
17 | COC(=O)c1ccsc1NC(=O)CSc1ccccc1 | 8.38%
18 | COc1cc(C(=O)O)c(NC(=O)CCSc2ccccn2)c(OC)c1OC | 28.6%
19 | COC(=O)c1ccsc1NC(=O)CSc1ccc(Br)cc1 | 9%
20 | COC(=O)c1nn(CCc2ccccc2)cc1NC(=O)CCc1ccccc1 | 3.99%

Row | SMILES | inhibition
21 | COC(=O)c1sccc1NC(=O)CN(C)c1ccccc1 | 7.57%
22 | COC(=O)c1sccc1NC(=O)CCSc1ccccc1 | 5.24%
23 | COC(=O)c1c(NC(=O)CSc2ccccc2N)cnn1CCc1ccccc1 | 5.4%
24 | COC(=O)c1ccccc1NC(=O)CSc1ccccn1 | 7.9%
25 | COC(=O)c1cc(Br)cc(Br)c1NC(=O)CCSc1ccccn1 | 11.4%
26 | O=C(CSc1ccc(Br)cc1)Nc1ccccc1C(=O)O | 30.9%
27 | COc1cc(NC(=O)CSc2ccc(Br)cc2)c(C2=NCCO2)cc1OC | 11.9%
28 | COC(=O)c1oc2cccc(Cl)c2c1NC(=O)CSc1ccccn1 | 7.33%
29 | COC(=O)c1ccccc1NC(=O)CSc1ccccc1 | 6.05%
30 | COC(=O)c1sc2ncccc2c1NC(=O)CCSc1ccccn1 | 4.95%
31 | COC(=O)c1cc(Br)cc(Br)c1NC(=O)C(Sc1ccc(Br)cc1)c1ccccc1 (stereo not given) | 21.3%
32 | COC(=O)c1ccsc1NC(=O)CCSc1ccc(Br)cc1 | 6.45%
33 | COC(=O)c1sccc1NC(=O)CSc1ccc(Br)cc1 | 4%
34 | COC(=O)c1nn(CCc2ccccc2)cc1NC(=O)COc1ccc(Br)cc1 | 2.97%
35 | COC(=O)c1cc(OC)c(OC)c(OC)c1NC(=O)CCSc1ccccn1 | 13.5%
36 | COC(=O)c1cc(OC)c(OC)cc1NC(=O)CCSc1ccccn1 | 17.5%
37 | COC(=O)c1sccc1NC(=O)COc1ccc(Br)cc1 | 10.8%
38 | COC(=O)c1c(NC(=O)CSc2ccc([N+](=O)[O-])cc2)cnn1CCc1ccccc1 | 4.5%
39 | COC(=O)c1c(NC(=O)CSc2cccc(OC)c2)cnn1CCc1ccccc1 | 4.17%
40 | O=C(CSc1ccc(Br)cc1)Nc1c(C(=O)O)oc2ccccc12 | 8.47%
